# Laboratory results taken from US20120034193A1, “TREATMENT OF NEUROTROPHIC FACTOR MEDIATED DISORDERS” (priority 2009, published 2012).
# Tests used:
# Experiment in all cases: Binding assay
# Conditions in all cases: smilagenin 1 μM
# [1] = target: Corticotropin Releasing Factor (CRF1) (Homo sapiens, UniProt P34998)
# Protocol: (§1) The receptor binding was investigated using the following method: Sarsasapogenin was incubated with tissue or cell homogenate that expressed the receptor of interest and a known concentration a radiolabelled compound with affinity for the receptor of interest. After the incubation period the non-bound radiolabelled compound was removed and the amount of specific binding was quantified. The amount of specific binding in the presence and absence of sarsasapogenin were compared and the percent inhibition of the binding of the radiolabelled compound by sarsasapogenin was calculated. The source of the receptor, the incubation conditions, the radiolabelled compound used varied depending on each specific assay.
# (§2) Using the same methods as described above, the binding of smilagenin (1 μM) to the receptors listed in Table 2 below, and the effect of smilagenin on the activity of the enzymes listed in Table 2 below, were investigated.
# Chemokine CCR5 = Chemokine CCR5 (Homo sapiens, UniProt P51681)
# Protocol: as §1, §2
# Cannabinoid CB2 = Cannabinoid CB2 (Homo sapiens, UniProt P34972)
# Sequence of Cannabinoid CB2 (P34972 whole entry): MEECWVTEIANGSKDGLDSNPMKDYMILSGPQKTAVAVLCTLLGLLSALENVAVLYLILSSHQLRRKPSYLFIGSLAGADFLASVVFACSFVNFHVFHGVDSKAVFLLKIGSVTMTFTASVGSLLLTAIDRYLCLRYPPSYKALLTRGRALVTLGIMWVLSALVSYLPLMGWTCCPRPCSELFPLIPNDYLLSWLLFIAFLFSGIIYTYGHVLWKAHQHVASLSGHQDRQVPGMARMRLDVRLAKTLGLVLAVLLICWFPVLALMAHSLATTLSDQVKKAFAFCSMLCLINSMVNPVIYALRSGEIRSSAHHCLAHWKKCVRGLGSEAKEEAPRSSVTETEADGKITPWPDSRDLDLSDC
# Protocol: as §1, §2
# Tachykinin NK2 = Tachykinin NK2 (Homo sapiens, UniProt P21452)
# Sequence of Tachykinin NK2 (P21452 whole entry): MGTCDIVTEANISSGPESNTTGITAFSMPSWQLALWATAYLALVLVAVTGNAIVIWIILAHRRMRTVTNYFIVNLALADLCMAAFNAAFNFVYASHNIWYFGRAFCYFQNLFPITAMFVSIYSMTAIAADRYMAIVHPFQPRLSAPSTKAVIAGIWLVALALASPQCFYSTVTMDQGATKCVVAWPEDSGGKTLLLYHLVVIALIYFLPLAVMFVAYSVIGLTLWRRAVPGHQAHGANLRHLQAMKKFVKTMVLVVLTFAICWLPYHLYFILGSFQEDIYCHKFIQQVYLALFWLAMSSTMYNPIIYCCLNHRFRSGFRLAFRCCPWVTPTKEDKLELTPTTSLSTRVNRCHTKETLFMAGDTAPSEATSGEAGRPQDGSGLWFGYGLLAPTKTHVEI
# Protocol: as §1, §2
# Prostanoid DP = Prostanoid DP (Homo sapiens, UniProt Q13258)
# Protocol: as §1, §2
# Transporter, Choline = Transporter, Choline (Rattus norvegicus, UniProt Q9JMD7)
# Protocol: as §1, §2
# Adrenergic α2C = Adrenergic α2C (Homo sapiens, UniProt P18825)
# Protocol: as §1, §2
# Interleukin IL-6 = Interleukin IL-6 (Homo sapiens, UniProt P08887)
# Protocol: as §1, §2
# Ryanodine RyR3 = Ryanodine RyR3 (Rattus norvegicus, UniProt A0ABK0LPH6)
# Protocol: as §1, §2
# Adrenomedullin AM1 = Adrenomedullin AM1 (Homo sapiens, UniProt O60895+Q16602)
# Protocol: as §1, §2
# Adensonine A2A = Adensonine A2A (Homo sapiens, UniProt P29274)
# Protocol: as §1, §2
# Angiotensin AT1 = Angiotensin AT1 (Homo sapiens, UniProt P30556)
# Protocol: as §1, §2
# [2] = target: N-Formyl Peptide Receptor FPR1 (Homo sapiens, UniProt P21462)
# Sequence of N-Formyl Peptide Receptor FPR1 (P21462 whole entry): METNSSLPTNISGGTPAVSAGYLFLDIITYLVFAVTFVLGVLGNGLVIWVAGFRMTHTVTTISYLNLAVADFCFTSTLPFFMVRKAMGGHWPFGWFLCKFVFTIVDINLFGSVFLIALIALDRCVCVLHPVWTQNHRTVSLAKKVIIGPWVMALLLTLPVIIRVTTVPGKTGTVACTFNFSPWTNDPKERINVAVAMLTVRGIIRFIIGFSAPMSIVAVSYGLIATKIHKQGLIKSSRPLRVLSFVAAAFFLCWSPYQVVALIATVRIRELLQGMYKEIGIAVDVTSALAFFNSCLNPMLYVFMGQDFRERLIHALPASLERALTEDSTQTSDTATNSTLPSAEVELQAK
# Protocol: as §1, §2
# Angiotensin AT2 = Angiotensin AT2 (Homo sapiens, UniProt P50052)
# Sequence of Angiotensin AT2 (P50052 whole entry): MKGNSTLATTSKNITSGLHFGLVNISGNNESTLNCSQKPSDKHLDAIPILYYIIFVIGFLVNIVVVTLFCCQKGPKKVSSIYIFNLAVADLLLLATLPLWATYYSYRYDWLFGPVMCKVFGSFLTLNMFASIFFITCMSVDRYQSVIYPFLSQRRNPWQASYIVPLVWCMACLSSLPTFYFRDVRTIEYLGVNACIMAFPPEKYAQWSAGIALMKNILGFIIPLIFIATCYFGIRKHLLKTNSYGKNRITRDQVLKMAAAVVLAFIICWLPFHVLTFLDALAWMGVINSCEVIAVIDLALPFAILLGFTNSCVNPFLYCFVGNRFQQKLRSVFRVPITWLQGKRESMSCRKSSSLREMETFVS
# Protocol: as §1, §2
# Melanocortin MC4 = Melanocortin MC4 (Homo sapiens, UniProt P32245)
# Protocol: as §1, §2
# [3] = target: Transporter, Dopamine (DAT) (Homo sapiens, UniProt Q01959)
# Protocol: as §1, §2
# Interleukin IL-1 = Interleukin IL-1 (Mus musculus, UniProt P13504)
# Protocol: as §1, §2
# [4] = target: 5-Hydroxytryptamine, 5-HT2C (Homo sapiens, UniProt P28335)
# Sequence of 5-Hydroxytryptamine, 5-HT2C (P28335 33-458): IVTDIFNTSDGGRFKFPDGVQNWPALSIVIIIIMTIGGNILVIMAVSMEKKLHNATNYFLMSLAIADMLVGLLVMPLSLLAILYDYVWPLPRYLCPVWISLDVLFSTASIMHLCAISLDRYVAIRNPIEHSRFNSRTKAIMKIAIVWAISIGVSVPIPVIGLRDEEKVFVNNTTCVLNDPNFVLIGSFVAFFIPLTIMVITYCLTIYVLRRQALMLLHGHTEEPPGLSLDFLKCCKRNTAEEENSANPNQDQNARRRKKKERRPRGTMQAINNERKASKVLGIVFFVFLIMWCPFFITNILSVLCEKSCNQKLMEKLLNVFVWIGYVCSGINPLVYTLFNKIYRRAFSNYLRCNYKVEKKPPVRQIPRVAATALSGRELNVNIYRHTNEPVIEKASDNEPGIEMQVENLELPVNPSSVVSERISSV
# Protocol: as §1, §2
# [5] = target: 5-Hydroxytryptamine, 5-HT3 (Homo sapiens, UniProt P46098)
# Protocol: as §1, §2
# Adrenergic β1 = Adrenergic β1 (Homo sapiens, UniProt P08588)
# Protocol: as §1, §2
# Interleukin IL-2 = Interleukin IL-2 (Mus musculus, UniProt P01590)
# Protocol: as §1, §2
# Neuromedin U MNU1 = Neuromedin U MNU1 (Homo sapiens, UniProt Q9HB89)
# Protocol: as §1, §2
# Motilin = Motilin (Homo sapiens, UniProt O43193)
# Protocol: as §1, §2
# Endothelin ETA = Endothelin ETA (Homo sapiens, UniProt P25101)
# Sequence of Endothelin ETA (P25101 21-427): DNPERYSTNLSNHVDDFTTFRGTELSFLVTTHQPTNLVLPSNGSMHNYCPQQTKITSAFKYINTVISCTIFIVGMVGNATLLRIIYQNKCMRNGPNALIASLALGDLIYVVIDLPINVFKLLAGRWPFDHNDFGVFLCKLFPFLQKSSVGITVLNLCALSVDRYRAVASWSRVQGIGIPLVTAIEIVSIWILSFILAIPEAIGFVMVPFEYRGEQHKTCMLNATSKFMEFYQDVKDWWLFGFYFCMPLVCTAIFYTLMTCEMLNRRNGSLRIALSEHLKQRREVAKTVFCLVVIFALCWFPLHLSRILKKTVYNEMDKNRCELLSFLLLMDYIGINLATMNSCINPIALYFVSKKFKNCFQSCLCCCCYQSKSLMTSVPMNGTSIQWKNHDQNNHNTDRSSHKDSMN
# Protocol: as §1, §2
# Bombesin BB3 = Bombesin BB3 (Homo sapiens, UniProt P32247)
# Protocol: as §1, §2
# Adrenergic α1B = Adrenergic α1B (Rattus norvegicus, UniProt P15823)
# Sequence of Adrenergic α1B (P15823 whole entry): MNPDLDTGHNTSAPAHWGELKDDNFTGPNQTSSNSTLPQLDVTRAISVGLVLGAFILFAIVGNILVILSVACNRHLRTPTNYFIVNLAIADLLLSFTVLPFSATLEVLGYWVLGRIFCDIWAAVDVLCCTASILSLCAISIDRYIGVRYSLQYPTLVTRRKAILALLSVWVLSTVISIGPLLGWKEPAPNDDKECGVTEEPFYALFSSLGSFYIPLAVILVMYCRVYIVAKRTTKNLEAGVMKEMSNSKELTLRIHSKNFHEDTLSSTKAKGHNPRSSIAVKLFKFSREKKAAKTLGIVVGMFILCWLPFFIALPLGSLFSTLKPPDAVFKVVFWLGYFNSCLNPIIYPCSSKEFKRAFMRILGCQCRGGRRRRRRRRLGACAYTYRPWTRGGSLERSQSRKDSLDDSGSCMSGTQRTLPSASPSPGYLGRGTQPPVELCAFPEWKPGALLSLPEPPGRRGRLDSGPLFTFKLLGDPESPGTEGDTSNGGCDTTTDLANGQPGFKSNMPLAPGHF
# Protocol: as §1, §2
# Adrenomedullin AM2 = Adrenomedullin AM2 (Homo sapiens, UniProt O60896+Q16602)
# Protocol: as §1, §2
# Muscarinic M4 = target: T1, Muscarinic M4 (Homo sapiens, UniProt P08173)
# T1 construct: host or cells: tissue or cell homogenate, not specified
# T1 sequence (P08173 whole entry): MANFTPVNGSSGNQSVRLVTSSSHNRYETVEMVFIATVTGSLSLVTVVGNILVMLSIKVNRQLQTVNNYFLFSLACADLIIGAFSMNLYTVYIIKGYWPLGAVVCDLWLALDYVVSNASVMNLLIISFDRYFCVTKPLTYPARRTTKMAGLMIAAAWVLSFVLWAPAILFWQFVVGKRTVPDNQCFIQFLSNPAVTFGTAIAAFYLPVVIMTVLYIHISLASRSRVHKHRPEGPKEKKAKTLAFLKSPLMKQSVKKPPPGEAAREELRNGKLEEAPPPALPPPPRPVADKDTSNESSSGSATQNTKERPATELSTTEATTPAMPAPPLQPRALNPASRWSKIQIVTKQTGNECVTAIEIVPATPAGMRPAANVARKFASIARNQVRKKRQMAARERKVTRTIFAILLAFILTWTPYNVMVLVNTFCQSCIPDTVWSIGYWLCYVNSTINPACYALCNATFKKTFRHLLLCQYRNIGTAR
# Protocol: as §1, §2
# Adensonine A3 = Adensonine A3 (Homo sapiens, UniProt P0DMS8)
# Protocol: as §1, §2
# Melatonin MT2 = Melatonin MT2 (Homo sapiens, UniProt P49286)
# Protocol: as §1, §2
# Muscarinic M1 = target: T2, Muscarinic M1 (Homo sapiens, UniProt P11229)
# T2 construct: host or cells: tissue or cell homogenate, not specified
# T2 sequence (P11229 whole entry): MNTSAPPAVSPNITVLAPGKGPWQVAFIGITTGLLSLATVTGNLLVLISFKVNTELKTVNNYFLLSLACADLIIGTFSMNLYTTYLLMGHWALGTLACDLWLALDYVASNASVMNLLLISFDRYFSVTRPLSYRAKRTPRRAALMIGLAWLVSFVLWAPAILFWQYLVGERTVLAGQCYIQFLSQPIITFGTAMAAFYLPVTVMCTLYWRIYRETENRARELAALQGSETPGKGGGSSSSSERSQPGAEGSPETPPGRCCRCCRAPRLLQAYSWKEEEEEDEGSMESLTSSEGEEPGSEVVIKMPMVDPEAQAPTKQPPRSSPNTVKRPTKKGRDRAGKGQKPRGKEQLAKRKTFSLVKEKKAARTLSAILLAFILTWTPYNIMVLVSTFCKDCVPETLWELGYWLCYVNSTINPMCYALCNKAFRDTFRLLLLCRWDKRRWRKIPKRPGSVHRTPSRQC
# Protocol: as §1, §2
# Chemokine CCR4 = Chemokine CCR4 (Homo sapiens, UniProt P51679)
# Protocol: as §1, §2
# Leptin = Leptin (Mus musculus, UniProt P48356)
# Protocol: as §1, §2
# Melanocortin MC3 = Melanocortin MC3 (Homo sapiens, UniProt P41968)
# Sequence of Melanocortin MC3 (P41968 whole entry): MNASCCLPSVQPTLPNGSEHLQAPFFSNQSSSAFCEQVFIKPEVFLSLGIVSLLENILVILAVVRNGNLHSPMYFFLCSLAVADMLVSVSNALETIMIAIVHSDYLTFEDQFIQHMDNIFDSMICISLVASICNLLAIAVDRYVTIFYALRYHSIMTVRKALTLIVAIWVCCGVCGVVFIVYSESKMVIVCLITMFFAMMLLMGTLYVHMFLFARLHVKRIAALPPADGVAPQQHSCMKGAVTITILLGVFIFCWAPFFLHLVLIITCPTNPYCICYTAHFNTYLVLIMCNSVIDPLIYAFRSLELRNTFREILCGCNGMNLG
# Protocol: as §1, §2
# Somatostatin sst3 = Somatostatin sst3 (Homo sapiens, UniProt P32745)
# Protocol: as §1, §2
# Galanin GAL2 = target: T3, Galanin GAL2 (Homo sapiens, UniProt O43603)
# T3 construct: host or cells: tissue or cell homogenate (not specified)
# T3 sequence (O43603 whole entry): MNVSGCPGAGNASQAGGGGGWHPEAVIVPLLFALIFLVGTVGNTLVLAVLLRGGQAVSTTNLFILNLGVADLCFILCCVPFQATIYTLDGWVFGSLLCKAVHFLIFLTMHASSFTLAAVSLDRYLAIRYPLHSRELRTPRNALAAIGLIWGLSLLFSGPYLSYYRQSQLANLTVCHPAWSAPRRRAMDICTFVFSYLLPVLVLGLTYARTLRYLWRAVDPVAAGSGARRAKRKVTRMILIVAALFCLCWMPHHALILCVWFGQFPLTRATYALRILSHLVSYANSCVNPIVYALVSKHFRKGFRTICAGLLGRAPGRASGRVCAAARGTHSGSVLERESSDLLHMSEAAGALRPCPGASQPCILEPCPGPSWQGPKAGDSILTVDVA
# Protocol: as §1, §2
# Sequence of Corticotropin Releasing Factor (CRF1) (P34998 24-415): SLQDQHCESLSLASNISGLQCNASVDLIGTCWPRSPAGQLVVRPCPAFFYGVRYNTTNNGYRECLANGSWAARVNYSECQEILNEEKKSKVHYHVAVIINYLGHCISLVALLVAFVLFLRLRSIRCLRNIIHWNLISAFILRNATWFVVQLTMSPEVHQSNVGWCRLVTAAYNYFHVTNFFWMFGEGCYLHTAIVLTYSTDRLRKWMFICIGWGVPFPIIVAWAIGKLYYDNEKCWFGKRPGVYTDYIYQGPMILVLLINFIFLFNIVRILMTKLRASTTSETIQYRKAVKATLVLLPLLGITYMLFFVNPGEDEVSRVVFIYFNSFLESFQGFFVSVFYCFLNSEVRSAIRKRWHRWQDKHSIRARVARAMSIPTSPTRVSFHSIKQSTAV
smiles,measurement,setting,value
"C[C@@H]1CC[C@@]2(OC1)O[C@H]1C[C@H]3[C@@H]4CC[C@@H]5C[C@@H](O)CC[C@]5(C)[C@H]4CC[C@]3(C)[C@H]1[C@@H]2C [Smilagenin, smilagenin]",Effect (%),[1],NS (NS = No significant response. Significance was taken as ≧30% stimulation or inhibition)
same,Effect (%),Chemokine CCR5,NS (NS = No significant response. Significance was taken as ≧30% stimulation or inhibition)
same,Effect (%),Cannabinoid CB2,NS (NS = No significant response. Significance was taken as ≧30% stimulation or inhibition)
same,Effect (%),Tachykinin NK2,NS (NS = No significant response. Significance was taken as ≧30% stimulation or inhibition)
same,Effect (%),Prostanoid DP,NS (NS = No significant response. Significance was taken as ≧30% stimulation or inhibition)
same,Effect (%),"Transporter, Choline",NS (NS = No significant response. Significance was taken as ≧30% stimulation or inhibition)
same,Effect (%),Adrenergic α2C,NS (NS = No significant response. Significance was taken as ≧30% stimulation or inhibition)
same,Effect (%),Interleukin IL-6,NS (NS = No significant response. Significance was taken as ≧30% stimulation or inhibition)
same,Effect (%),Ryanodine RyR3,NS (NS = No significant response. Significance was taken as ≧30% stimulation or inhibition)
same,Effect (%),Adrenomedullin AM1,NS (NS = No significant response. Significance was taken as ≧30% stimulation or inhibition)
same,Effect (%),Adensonine A2A,NS (NS = No significant response. Significance was taken as ≧30% stimulation or inhibition)
same,Effect (%),Angiotensin AT1,NS (NS = No significant response. Significance was taken as ≧30% stimulation or inhibition)
same,Effect (%),[2],NS (NS = No significant response. Significance was taken as ≧30% stimulation or inhibition)
same,Effect (%),Angiotensin AT2,NS (NS = No significant response. Significance was taken as ≧30% stimulation or inhibition)
same,Effect (%),Melanocortin MC4,NS (NS = No significant response. Significance was taken as ≧30% stimulation or inhibition)
same,Effect (%),[3],NS (NS = No significant response. Significance was taken as ≧30% stimulation or inhibition)
same,Effect (%),Interleukin IL-1,NS (NS = No significant response. Significance was taken as ≧30% stimulation or inhibition)
same,Effect (%),[4],NS (NS = No significant response. Significance was taken as ≧30% stimulation or inhibition)
same,Effect (%),[5],NS (NS = No significant response. Significance was taken as ≧30% stimulation or inhibition)
same,Effect (%),Adrenergic β1,NS (NS = No significant response. Significance was taken as ≧30% stimulation or inhibition)
same,Effect (%),Interleukin IL-2,NS (NS = No significant response. Significance was taken as ≧30% stimulation or inhibition)
same,Effect (%),Neuromedin U MNU1,NS (NS = No significant response. Significance was taken as ≧30% stimulation or inhibition)
same,Effect (%),Motilin,NS (NS = No significant response. Significance was taken as ≧30% stimulation or inhibition)
same,Effect (%),Endothelin ETA,NS (NS = No significant response. Significance was taken as ≧30% stimulation or inhibition)
same,Effect (%),Bombesin BB3,NS (NS = No significant response. Significance was taken as ≧30% stimulation or inhibition)
same,Effect (%),Adrenergic α1B,NS (NS = No significant response. Significance was taken as ≧30% stimulation or inhibition)
same,Effect (%),Adrenomedullin AM2,NS (NS = No significant response. Significance was taken as ≧30% stimulation or inhibition)
same,Effect (%),Muscarinic M4,NS (NS = No significant response. Significance was taken as ≧30% stimulation or inhibition)
same,Effect (%),Adensonine A3,NS (NS = No significant response. Significance was taken as ≧30% stimulation or inhibition)
same,Effect (%),Melatonin MT2,NS (NS = No significant response. Significance was taken as ≧30% stimulation or inhibition)
same,Effect (%),Muscarinic M1,NS (NS = No significant response. Significance was taken as ≧30% stimulation or inhibition)
same,Effect (%),Chemokine CCR4,NS (NS = No significant response. Significance was taken as ≧30% stimulation or inhibition)
same,Effect (%),Leptin,NS (NS = No significant response. Significance was taken as ≧30% stimulation or inhibition)
same,Effect (%),Melanocortin MC3,NS (NS = No significant response. Significance was taken as ≧30% stimulation or inhibition)
same,Effect (%),Somatostatin sst3,NS (NS = No significant response. Significance was taken as ≧30% stimulation or inhibition)
same,Effect (%),Galanin GAL2,NS (NS = No significant response. Significance was taken as ≧30% stimulation or inhibition)
